From US7345158B2, “Actin related cytoskeletal protein “LACS”” (Anges MG, Inc., priority 2002, dated 2008)
Positions of bridges follow the written chain, without caps; N, C: chain ends. No end group written: not given here.

Experiments:
[1] = test system: LACS mRNA expression in cardiac tissues; assay: LACS mRNA expression in cardiac tissues of L-NAME-administered WKY rats (Northern blotting); format: in vivo, rat; details: male WKY rats, oral L-NAME 100 mg/L
Procedure: RNAs were extracted from the hearts of a male WKY rat group that has been subjected to a one-week oral administration of L-NAME (100 mg/L), and from the hearts of a control group without L-NAME administration. […] As a result, a novel LACS (L-NAME related actin cytoskeletal protein) gene was successfully isolated. […] Furthermore, mRNA expression in tissues other than the heart was also analyzed by Northern blotting. […] Particularly with the heart, the expression of LACS mRNA was confirmed in the myocardial cells.

[2] = test system: LACS expression in cultured myocardial cells; assay: LACS protein expression in cultured myocardial cells under hypertrophic agonist stimulation; format: cell-based, rat; details: for LACS protein expression on hypertrophic agonist stimulation: primary cultured neonatal rat myocardial cells
Procedure: Primary cultures of myocardial cells isolated from neonatal rats (one- to three-day old) using trypsin and collagenase were prepared. For the first 24 to 48 hours, the cells were cultured in a serum-containing medium, and then for another 24 hours in a serum-free medium.
Myocardial cells cultured by the same method in Example 4 were used. First, cells were stimulated with the representative hypertrophic agonists, AngII, phenylephrine, and Endothelin-1.
LACS expression which increases upon phenylephrine stimulation was suppressed by the simultaneous administration of 10 μM of Y27632 (ROCK inhibitor; Calbiochem). […] Rho is a low-molecular-weight GTP-binding protein (small G protein) involved in the contraction of smooth muscles, and regulation of cytokinesis, cell motility, and cytomorphology, via reorganization of actin filaments.

[3] = test system: LACS mRNA expression in the heart; assay: LACS mRNA expression in the hearts of AngII infusion rats; format: in vivo, rat; details: osmotic pump 0.7 mg/kg/day
Procedure: Cardiac tissues derived from AngII infusion rats (osmotic pump: 0.7 mg/kg/day), and SHRs of 4 weeks and 24 weeks, were used. ATIR antagonist (ARB) and hydrazine (Hyd) were used as antihypertensive agents. Each of the antihypertensive agents was used at an amount sufficient for lowering the blood pressure (10 mg/kg/day for ARB; 12 mg/kg/day for Hyd).

Compound	LACS protein expression on hypertrophic agonist stimulation [2]	other results
COC(=O)[C@@H](N)CCCN=C(N)N[N+](=O)[O-].Cl [L-NAME, N^G-Nitro-L-arginine methyl ester, hydrochloride]	–	LACS mRNA expression level in cardiac tissues after L-NAME administration [1]: reaches its peak one to three days after L-NAME administration
C[C@@H](N)[C@H]1CC[C@H](C(=O)Nc2ccncc2)CC1 [Y27632]	–	Effect on the LACS expression increased by phenylephrine stimulation ([2]; cultured myocardial cells, simultaneous administration of 10 μM): suppressed
angiotensin II (DRVYIHPF; Angiotensin-2; UniProt P01019 25-32, looked up) [AngII, representative hypertrophic agonist]	found to increase	LACS expression in the heart after AngII administration [3]: increased LACS expression after the third day
CNC[C@H](O)c1cccc(O)c1 [phenylephrine]	found to increase	–
Endothelin-1 (CSCSSLMDKECVYFCHLDIIW; disulfide 1-15, 3-11; ends not checked; UniProt P05305 53-73, looked up) [representative hypertrophic agonist]	found to increase	–
